This note sets out measurements from article PMC6822579, “A novel benzoxazinone derivative YLT-LL-11 inhibits diffuse large B-cell lymphoma growth via inducing cell cycle arrest and apoptosis” (Bioscience Reports, 2019).

The term IC50 denotes the concentration at which inhibition is half-maximal. Lower therefore signals greater potency.

The test concerns the target T1, BRD4 (D1); BRD4 (BD1) (Homo sapiens, UniProt O60885).
T1 construct: first bromodomain (D1/BD1), purchased from Biogenie, Canada
Nature of the test: AlphaScreen peptide displacement assay. Format: binding. A general note: In Alpha technology, singlet oxygen from a donor bead excites a nearby acceptor bead.

`CCC1Oc2cc(NS(=O)(=O)c3ccccc3OC)ccc2NC1=O` (stereo not shown) [compound 5, N-(2-ethyl-3-oxo-3,4-dihydro-2H-benzo[b] [1, 4]oxazin-7-yl)-2-methoxybenzenesulfonamide] gave a 50% inhibitory concentration (IC50) of 999 nM.
